Laboratory results from PubChem BioAssay AID588741 (Johns Hopkins Ion Channel Center, 2011).
Activity calls are given as the source filed them.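 How the source made its calls: active means peak inhibition of the hERG potassium channel flux above 30% at some tested dose, plus a fitted dose response curve; inactive means no inhibition at any dose, or no curve.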

Biological target: Voltage-gated inwardly rectifying potassium channel KCNH2 (Homo sapiens) (UniProt Q12809)
Assay: hERG channel inhibition, SAR follow-up, selectivity assay for KCNK9 inhibitor project, cell-based, FluxOR thallium flux, CRC set 3 (AID 588741)
Conditions: hERG-expressing cells, FluxOR thallium flux fluorescence; for flux ratio, lower = inhibition: at 30 µM (top of the series)

Chain of Voltage-gated inwardly rectifying potassium channel KCNH2 (Homo sapiens) (Q12809 whole entry, looked up): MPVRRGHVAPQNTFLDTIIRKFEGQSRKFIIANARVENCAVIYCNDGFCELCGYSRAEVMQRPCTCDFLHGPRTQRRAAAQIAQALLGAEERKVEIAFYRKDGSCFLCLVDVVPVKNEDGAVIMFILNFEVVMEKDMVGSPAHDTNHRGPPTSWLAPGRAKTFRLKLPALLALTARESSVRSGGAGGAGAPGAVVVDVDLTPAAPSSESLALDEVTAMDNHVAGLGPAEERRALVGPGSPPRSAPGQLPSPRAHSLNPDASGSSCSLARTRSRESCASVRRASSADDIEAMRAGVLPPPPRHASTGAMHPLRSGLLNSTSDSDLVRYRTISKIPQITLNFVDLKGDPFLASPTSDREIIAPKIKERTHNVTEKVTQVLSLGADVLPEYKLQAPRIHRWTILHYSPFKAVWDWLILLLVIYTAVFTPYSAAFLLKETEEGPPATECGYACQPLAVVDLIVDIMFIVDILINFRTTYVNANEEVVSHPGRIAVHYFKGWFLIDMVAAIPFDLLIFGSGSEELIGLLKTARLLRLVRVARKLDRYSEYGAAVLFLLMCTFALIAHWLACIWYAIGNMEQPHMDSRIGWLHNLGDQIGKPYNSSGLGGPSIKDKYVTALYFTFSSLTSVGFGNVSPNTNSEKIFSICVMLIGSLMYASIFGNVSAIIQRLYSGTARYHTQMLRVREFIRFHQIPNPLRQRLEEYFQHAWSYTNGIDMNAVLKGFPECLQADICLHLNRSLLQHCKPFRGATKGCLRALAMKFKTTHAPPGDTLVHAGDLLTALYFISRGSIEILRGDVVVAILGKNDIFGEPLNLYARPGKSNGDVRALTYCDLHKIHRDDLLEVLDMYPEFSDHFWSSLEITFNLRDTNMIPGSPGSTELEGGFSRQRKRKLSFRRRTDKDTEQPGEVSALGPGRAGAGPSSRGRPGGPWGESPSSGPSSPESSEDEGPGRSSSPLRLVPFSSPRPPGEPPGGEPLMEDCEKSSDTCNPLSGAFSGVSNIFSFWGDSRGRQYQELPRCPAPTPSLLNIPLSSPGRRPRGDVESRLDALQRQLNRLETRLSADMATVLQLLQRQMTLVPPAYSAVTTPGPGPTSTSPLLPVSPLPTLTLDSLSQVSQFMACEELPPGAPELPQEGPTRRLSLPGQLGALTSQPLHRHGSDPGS

| SMILES | flux ratio, lower = inhibition | IC50 |
| --- | --- | --- |
| CC(C1CC2CCC1C2)n1c(-c2cccc(F)c2)n[nH]c1=S (stereo not drawn) | inactive | – |
| CC(C1CC2CCC1C2)n1c(SCC(=O)c2ccc3c(c2)OCO3)nnc1-c1ccco1 (stereo not drawn) | – | 3.45 µM |
| CC(C1CC2CCC1C2)n1c(-c2ccco2)nnc1C(F)(F)F (stereo not drawn) | inactive | – |
| CC(c1cccc2ccccc12)n1c(-c2ccco2)n[nH]c1=S (stereo not drawn) | inactive | – |
| CC(C1C2CCC1CC2)n1c(-c2ccco2)n[nH]c1=S (stereo not drawn) | inactive | – |
| CC(CC1CC2CCC1C2)n1c(-c2ccco2)n[nH]c1=S (stereo not drawn) | inactive | – |
| C[C@@H](C1CCCCC1)n1c(-c2ccco2)n[nH]c1=S | inactive | – |
| CSc1nnc(-c2ccco2)n1C(C)C1CC2CCC1C2 (stereo not drawn) | inactive | – |
| CC(NC(=O)c1ccco1)C1CC2CCC1C2 (stereo not drawn) | inactive | – |
| CC(C1CC2CCC1C2)n1c(-c2ccco2)n[nH]c1=S (stereo not drawn) | inactive | – |
| CC(CCC1CCCC1)n1c(-c2ccco2)n[nH]c1=S (stereo not drawn) | inactive | – |
| COc1ccccc1C(=O)Nc1cccc(NC(=O)c2cccc3ccccc23)c1 | inactive | – |
| CC(C1CC2CCC1C2)n1c(-c2cccc(N(C)C)c2)n[nH]c1=S (stereo not drawn) | inactive | – |
| C[C@H](C1CCCCC1)n1c(-c2ccco2)n[nH]c1=S | inactive | – |
| CC(C1CC2CCC1C2)n1c(SCC(=O)c2ccc(Cl)c(Cl)c2)nnc1-c1ccco1 (stereo not drawn) | inactive | – |
| COc1cccc(-c2nnc(S(C)(=O)=O)n2C(C)C2CC3CCC2C3)c1 (stereo not drawn) | inactive | – |
| COc1cccc(C(=O)CSc2nnc(-c3ccco3)n2C(C)C2CC3CCC2C3)c1 (stereo not drawn) | – | 17.2 µM |
| CC(C1CC2CCC1C2)n1c(-c2cccnc2)n[nH]c1=S (stereo not drawn) | inactive | – |
| S=c1[nH]nc(-c2ccco2)n1C1CC2CCC1C2 (stereo not drawn) | inactive | – |
| COc1ccccc1C(=O)Nc1cc(NC(=O)c2ccccc2C(C)C)ccc1F | inactive | – |
| CC(C)c1ccccc1C(=O)Nc1cccc(NC(=O)c2ccccc2OC(F)(F)F)c1 | inactive | – |
| CC(C1CC2CCC1C2)n1c(-c2cccs2)n[nH]c1=S (stereo not drawn) | inactive | – |

| SMILES | flux ratio, lower = inhibition | IC50 |
| --- | --- | --- |
| CC(C1CC2CCC1C2)N(C)C(=O)c1ccco1 (stereo not drawn) | inactive | – |
| S=c1[nH]nc(-c2ccco2)n1CC1CC2CCC1C2 (stereo not drawn) | inactive | – |
| CC(C1CC2CCC1C2)n1c(SCc2ccccc2)nnc1-c1ccco1 (stereo not drawn) | – | 9.77 µM |
| CC(C1CC2CCC1C2)n1c(-c2ccncc2)n[nH]c1=S (stereo not drawn) | inactive | – |
| CC(C1CC2CCC1C2)n1c(SCC#N)nnc1-c1cccs1 (stereo not drawn) | inactive | – |
| COc1cccc(-c2n[nH]c(=S)n2C(C)C2CC3CCC2C3)c1OC (stereo not drawn) | inactive | – |
| CC(C1CC2CCC1C2)n1c(-c2ccco2)n[nH]c1=O (stereo not drawn) | inactive | – |
| CC(C1CC2CCC1C2)n1c(-c2ccccc2F)n[nH]c1=S (stereo not drawn) | inactive | – |
| COc1cccc(Cc2n[nH]c(=S)n2C(C)C2CC3CCC2C3)c1 (stereo not drawn) | inactive | – |
| CC(C1CC2CCC1C2)n1c(-c2ccccn2)n[nH]c1=S (stereo not drawn) | inactive | – |
| CC(C)Oc1ccccc1C(=O)Nc1cccc(NC(=O)c2ccccc2OC(F)(F)F)c1 | inactive | – |
| COc1ccc(CCSc2nnc(-c3ccco3)n2C(C)C2CC3CCC2C3)cc1OC (stereo not drawn) | – | 16.7 µM |
| CC(C1CC2CCC1C2)n1cnnc1-c1ccco1 (stereo not drawn) | inactive | – |
| CC(C1CC2CCC1C2)n1c(-c2cccn2C)n[nH]c1=S (stereo not drawn) | inactive | – |
| CC(C1CC2CCC1C2)n1c(SCC(=O)c2ccccc2)nnc1-c1ccco1 (stereo not drawn) | – | 23.9 µM |
| COc1cc(OC)cc(-c2n[nH]c(=S)n2C(C)C2CC3CCC2C3)c1 (stereo not drawn) | inactive | – |
| CC(C1CC2CCC1C2)n1c(-c2ccc(N(C)C)cc2)n[nH]c1=S (stereo not drawn) | inactive | – |
| CC(C1CCCCC1)n1c(-c2ccco2)n[nH]c1=S (stereo not drawn) | inactive | – |
| COc1ccc(C(=O)CSc2nnc(-c3ccco3)n2C(C)C2CC3CCC2C3)cc1OC (stereo not drawn) | – | 13.6 µM |
| CC(C1CC2CCC1C2)n1c(SC(F)F)nnc1-c1ccco1 (stereo not drawn) | inactive | – |
| COc1ccc(C(=O)CSc2nnc(-c3ccco3)n2C(C)C2CC3CCC2C3)cc1 (stereo not drawn) | – | 20.1 µM |
